Measurements as given in US11667652B2, “MCL1 inhibitors” (Gilead Sciences, Inc., priority 2019, dated 2023).
Read-outs that look alike come from different tables or passages of the source.

Key:
SKBR3 cells = assay: SKBR3 Cell Viability Assay; assay type: cell-based; settings: CellTiter Glo, read-out: MCL1 CV SKBR3 EC50
Procedure: SKBR3 Cell Viability Assay Materials
SKBR3 Cells (ATCC HTB-30) were obtained from ATCC (Manassas, Va.) and cultured in McCoy 5A's medium (ATCC 30-2007)+10% fetal bovine serum (SH30071.03, HyClone, Pittsburgh, Pa.) plus 1× Penicillin-Streptomycin L-glutamine (Corning 30-009-CI, Corning, N.Y.).
The cell viability assay was conducted in a 384-well tissue culture plate (Grenier 781086, Monroe, N.C.) in a total volume of 70 μL. Test compounds were prepared in 1,000×, serially diluted, and pre-spotted into 384-well tissue culture plate by Echo 555 Liquid Handler (Labcyte Inc., San Jose, Calif.). Seventy μL of 6,000 SKBR3 cells were dispensed into each well of the plate and incubated at 37° C. with 5% CO2 for 72 hours. At the end of incubation, 2× CellTiter Glo (CTG) reagents (1 part buffer with 2 parts substrate) (Promega, Madison, Wis.) were prepared, and the plate and the reagent were equilibrated to room temperature for 30 minutes. CTG reagent was added to each plate by Biomek FX at 20 μL/well with 5 times pipetting and mixing to induce cell lysis. Luminescence was read by Envision multimode reader (PerkinElmer). Percent inhibition was calculated as followed: % Inhibition=100%*(Well−Neg)/(Pos−Neg) Neg, negative control, DMSO Pos, positive control, 10 μM Puromycin

MCL1/Bim = MCL1/Bim (Homo sapiens (Human), UniProt Q07820); assay: MCL1/Bim Binding AlphaLISA Assay; settings: recombinant human 6xHis-MCL1 (171-327), biotinylated Bim peptide (51-76)
Sequence of MCL1/Bim (Q07820 171-327): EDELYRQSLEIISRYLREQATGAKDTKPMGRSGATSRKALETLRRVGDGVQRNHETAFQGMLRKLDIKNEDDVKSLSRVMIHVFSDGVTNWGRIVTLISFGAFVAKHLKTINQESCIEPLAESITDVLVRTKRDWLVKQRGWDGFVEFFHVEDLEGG
How it was run: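 AlphaLISA with 0.0625 nM human 6×His-MCL1 (171-327) and 0.0625 nM biotinylated Bim (51-76) peptide in 20 mM Hepes pH 7.5, 150 mM NaCl, 0.002% Brij 35, 1 mM DTT, 0.01% BSA. Compound preincubated with MCL1 1 h, Bim added 2 h, then acceptor and donor beads 1 h each; % inhibition versus DMSO and no-protein/peptide controls.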

[1] = Homo sapiens, SK-BR-3, 72 hours

| Structure (SMILES) | EC50 (SKBR3 cells; [1]) [nM] | IC50 (MCL1/Bim) [nM] | EC50 (SKBR3 cells; 72 hours) [nM] |
| --- | --- | --- | --- |
| C[C@H]1C/C=C/[C@H](OCCN2CCOCC2)[C@@H]2CC[C@H]2CN2C[C@@]3(CCCc4cc(Cl)ccc43)COc3ccc(cc32)C(=O)N=[S@](=O)(Nc2ncnc3nn(C)cc23)C1 [Example 52] | 9.5 | 0.081 | – |
| C=CCO[C@H]1/C=C/C[C@H](C)C[S@@](=O)(NC(=O)c2cn(C)nc2OC)=NC(=O)c2ccc3c(c2)N(C[C@@H]2CC[C@H]21)C[C@@]1(CCCc2cc(Cl)ccc21)CO3 [Example 54] | – | 0.092 | 103 |
| C=CCO[C@@H]1/C=C/C[C@H](C)C[S@@](=O)(NC(=O)c2cn(C)nc2OC)=NC(=O)c2ccc3c(c2)N(C[C@@H]2CC[C@H]21)C[C@@]1(CCCc2cc(Cl)ccc21)CO3 [Example 55] | – | 0.332 | 426 |
| COc1nn(C)cc1C(=O)N[S@@]1(=O)=NC(=O)c2ccc3c(c2)N(C[C@@H]2CC[C@H]2[C@@H](OC(=O)CCC2CCOCC2)/C=C/C[C@H](C)C1)C[C@@]1(CCCc2cc(Cl)ccc21)CO3 [Example 56] | 93.6 | 0.16 | – |
| COc1nn(C)cc1C(=O)N[S@@]1(=O)=NC(=O)c2ccc3c(c2)N(C[C@@H]2CC[C@H]2[C@@H](OCCN2CC(N(C)C)C2)/C=C/C[C@H](C)C1)C[C@@]1(CCCc2cc(Cl)ccc21)CO3 [Example 58] | – | 0.098 | 38.3 |
| COc1nn(C)cc1C(=O)N[S@@]1(=O)=NC(=O)c2ccc3c(c2)N(C[C@@H]2CC[C@H]2[C@@H](OCCN2CC(OC)C2)/C=C/C[C@H](C)C1)C[C@@]1(CCCc2cc(Cl)ccc21)CO3 [Example 61] | 19.6 | 0.136 | – |
| CO[C@H]1/C=C/[C@H](O)[C@H](C)C[S@@](=O)(Nc2ncnc3nn(C)cc23)=NC(=O)c2ccc3c(c2)N(C[C@@H]2CC[C@H]21)C[C@@]1(CCCc2cc(Cl)ccc21)CO3 [Example 66] | 8.6 | 0.039 | – |
| COc1nn(C)cc1C(=O)N[S@@]1(=O)=NC(=O)c2ccc3c(c2)N(C[C@@H]2CC[C@H]2[C@@H](OC)/C=C/[C@@H](OC)[C@H](C)[C@H]1C)C[C@@]1(CCCc2cc(Cl)ccc21)CO3 [Example 68] | – | 0.2 | 93.8 |
| COc1nn(C)cc1C(=O)N[S@@]1(=O)=NC(=O)c2ccc3c(c2)N(C[C@@H]2CC[C@H]2[C@@H](OC)/C=C/[C@@H](OC)[C@H](C)[C@H]1C)C[C@@]1(CCCc2cc(Cl)ccc21)CO3 [Example 69] | – | 2.07 | 1000 |
| CO[C@H]1/C=C/[C@H](OC)[C@H](C)C[S@@](=O)(NC(=O)c2cn(C)nc2OCCN2CCOCC2)=NC(=O)c2ccc3c(c2)N(C[C@@H]2CC[C@H]21)C[C@@]1(CCCc2cc(Cl)ccc21)CO3 [Example 70] | – | 0.198 | 92.9 |
| CO[C@H]1/C=C/[C@H](OC)CC[S@@](=O)(Nc2ncnc3nn(C)cc23)=NC(=O)c2ccc3c(c2)N(C[C@@H]2CC[C@H]21)C[C@@]1(CCCc2cc(Cl)ccc21)CO3 [Example 71] | – | 0.894 | 192 |
| COc1nn(C)cc1C(=O)N[S@@]1(=O)=NC(=O)c2ccc3c(c2)N(C[C@@H]2CC[C@H]2[C@@H](OC)C#C[C@H](OC)[C@H](C)C1)C[C@@]1(CCCc2cc(Cl)ccc21)CO3 [Example 72] | – | 0.309 | 294 |
| COCC(=O)O[C@H]1/C=C/[C@H](OC)[C@@H]2CC[C@H]2CN2C[C@@]3(CCCc4cc(Cl)ccc43)COc3ccc(cc32)C(=O)N=[S@](=O)(NC(=O)c2cn(C)nc2OC)C[C@H]1C [Example 73] | 13.8 | 0.047 | – |
| COCCOCCOCCO[C@H]1/C=C/[C@H](OC)[C@@H]2CC[C@H]2CN2C[C@@]3(CCCc4cc(Cl)ccc43)COc3ccc(cc32)C(=O)N=[S@](=O)(NC(=O)c2cn(C)nc2OC)C[C@H]1C [Example 76] | 24.1 | 0.048 | – |
| COc1nn(C)cc1C(=O)N[S@@]1(=O)=NC(=O)c2ccc3c(c2)N(C[C@@H]2CC[C@H]2[C@@H](OC)/C=C/[C@H](Oc2ccccn2)[C@H](C)C1)C[C@@]1(CCCc2cc(Cl)ccc21)CO3 [Example 77] | 477 | 0.905 | – |
| COc1nn(C)cc1C(=O)N[S@@]1(=O)=NC(=O)c2ccc3c(c2)N(C[C@@H]2CC[C@H]2[C@@H](OC)/C=C/[C@H](Oc2ccncc2)[C@H](C)C1)C[C@@]1(CCCc2cc(Cl)ccc21)CO3 [Example 78] | 1060 | 0.679 | – |
| COc1nn(C)cc1C(=O)N[S@@]1(=O)=NC(=O)c2ccc3c(c2)N(C[C@@H]2CC[C@H]2[C@@H](OC)/C=C/[C@H](OCCN2CC(OC)C2)[C@H](C)C1)C[C@@]1(CCCc2cc(Cl)ccc21)CO3 [Example 81] | 6.3 | 0.011 | – |
| COc1nn(C)cc1C(=O)N[S@@]1(=O)=NC(=O)c2ccc3c(c2)N(C[C@@H]2CC[C@H]2[C@@H](OC)/C=C/[C@H](OCc2nccn2C)[C@H](C)C1)C[C@@]1(CCCc2cc(Cl)ccc21)CO3 [Example 83] | 99.1 | 0.1 | – |

Next, values leading:

| EC50 (SKBR3 cells; [1]) [nM] | IC50 (MCL1/Bim) [nM] | EC50 (SKBR3 cells; 72 hours) [nM] | Structure (SMILES) |
| --- | --- | --- | --- |
| 433 | 0.222 | – | C[C@H]1C/C=C/[C@H](OC(=O)c2cnn(C)c2)[C@@H]2CC[C@H]2CN2C[C@@]3(CCCc4cc(Cl)ccc43)COc3ccc(cc32)C(=O)N=[S@](=O)(NC(=O)c2cnn(C)c2)C1 [Example 51] |
| – | 0.105 | 21.7 | COc1nn(C)cc1C(=O)N[S@@]1(=O)=NC(=O)c2ccc3c(c2)N(C[C@@H]2CC[C@H]2[C@@H](OCCCN2CCOCC2)/C=C/C[C@H](C)C1)C[C@@]1(CCCc2cc(Cl)ccc21)CO3 [Example 53] |
| 19.2 | 0.07 | – | COc1nn(C)cc1C(=O)N[S@@]1(=O)=NC(=O)c2ccc3c(c2)N(C[C@@H]2CC[C@H]2[C@@H](OCCN2CCN(C4COC4)CC2)/C=C/C[C@H](C)C1)C[C@@]1(CCCc2cc(Cl)ccc21)CO3 [Example 60] |
| 17.5 | 0.069 | – | COc1nn(C)cc1C(=O)N[S@@]1(=O)=NC(=O)c2ccc3c(c2)N(C[C@@H]2CC[C@H]2[C@@H](OCCN2CC(C(F)F)C2)/C=C/C[C@H](C)C1)C[C@@]1(CCCc2cc(Cl)ccc21)CO3 [Example 62] |
| 25.2 | 0.034 | – | COc1nn(C)cc1C(=O)N[S@@]1(=O)=NC(=O)c2ccc3c(c2)N(C[C@@H]2CC[C@H]2[C@@H](OCCN2CCC(OC)CC2)/C=C/C[C@H](C)C1)C[C@@]1(CCCc2cc(Cl)ccc21)CO3 [Example 63] |
| 187 | 0.06 | – | COc1nn(C)cc1C(=O)N[S@@]1(=O)=NC(=O)c2ccc3c(c2)N(C[C@@H]2CC[C@H]2[C@@H](OC)/C=C/[C@H](OCc2ncccn2)[C@H](C)C1)C[C@@]1(CCCc2cc(Cl)ccc21)CO3 [Example 74] |
| 171 | 0.217 | – | COCC#CCO[C@H]1/C=C/[C@H](OC)[C@@H]2CC[C@H]2CN2C[C@@]3(CCCc4cc(Cl)ccc43)COc3ccc(cc32)C(=O)N=[S@](=O)(NC(=O)c2cn(C)nc2OC)C[C@H]1C [Example 75] |
| – | 0.062 | 42.9 | COc1nn(C)cc1C(=O)N[S@@]1(=O)=NC(=O)c2ccc3c(c2)N(C[C@@H]2CC[C@H]2[C@@H](OC)/C=C/[C@H](OCCN2CCN(C4COC4)CC2)[C@H](C)C1)C[C@@]1(CCCc2cc(Cl)ccc21)CO3 [Example 79] |
| 27.5 | 0.253 | – | COc1nn(C)cc1C(=O)N[S@@]1(=O)=NC(=O)c2ccc3c(c2)N(C[C@@H]2CC[C@H]2[C@@H](OC)/C=C/[C@H](OCCN2CC(N(C)C)C2)[C@H](C)C1)C[C@@]1(CCCc2cc(Cl)ccc21)CO3 [Example 80] |
| 53.6 | 0.041 | – | COc1nn(C)cc1C(=O)N[S@@]1(=O)=NC(=O)c2ccc3c(c2)N(C[C@@H]2CC[C@H]2[C@@H](OC)/C=C/[C@H](OCCN2CCN(C)CC2)[C@H](C)C1)C[C@@]1(CCCc2cc(Cl)ccc21)CO3 [Example 82] |
| 90 | 0.099 | – | COc1nn(C)cc1C(=O)N[S@@]1(=O)=NC(=O)c2ccc3c(c2)N(C[C@@H]2CC[C@H]2[C@@H](OC)/C=C/[C@H](OCc2ccncc2)[C@H](C)C1)C[C@@]1(CCCc2cc(Cl)ccc21)CO3 [Example 84] |
| 164 | 0.085 | – | COc1nn(C)cc1C(=O)N[S@@]1(=O)=NC(=O)c2ccc3c(c2)N(C[C@@H]2CC[C@H]2[C@@H](OC)/C=C/[C@H](OCc2cn(C)cn2)[C@H](C)C1)C[C@@]1(CCCc2cc(Cl)ccc21)CO3 [Example 85] |
| 64.6 | 0.088 | – | COc1nn(C)cc1C(=O)N[S@@]1(=O)=NC(=O)c2ccc3c(c2)N(C[C@@H]2CC[C@H]2[C@@H](OC)/C=C/[C@H](OCCN2CC4(COC4)C2)[C@H](C)C1)C[C@@]1(CCCc2cc(Cl)ccc21)CO3 [Example 86] |
| 1090 | 0.19 | – | COc1nn(C)cc1C(=O)N[S@@]1(=O)=NC(=O)c2ccc3c(c2)N(C[C@@H]2CC[C@H]2[C@@H](OC)/C=C/[C@H](OCCN2CC4(CN(C)C4)C2)[C@H](C)C1)C[C@@]1(CCCc2cc(Cl)ccc21)CO3 [Example 87] |
